Experiments:
[1] = target: T1, β-Amyloid (1-40) (Homo sapiens, UniProt P05067); assay: Amyloid-β polymerization inhibitory activity in Thioflavin T (ThT) assay; format: biochemical; conditions: sample 50 μM final; ThT fluorescence for 4 hours
T1 construct: SensoLyte Thioflavin T β-Amyloid (1-40) Aggregation Kit (ANASPEC); purchased ANASPEC
Method: ThT assay involved evaluating polymerization using SensoLyte Thioflavin T β-Amyloid (1-40) Aggregation Kit (ANASPEC) in accordance with an accompanying protocol.
As an apparatus used for measurement, Varioskan LUX (Thermo Fisher Scientific) was used, and fluorescence derived from the polymerization of amyloid-β was measured for 4 hours at intervals of 5 minutes. A sample was stirred for 15 seconds before each measurement and subjected to the measurement. An excitation wavelength of 440 nm and a detection wavelength of 484 nm were used.
The sample used for the ThT assay was prepared to have a final concentration of 50 μM before being used for the experiment. Tannic acid (Ono, K., Hasegawa, K., Naiki, H. & Yamada, M. (2004) Anti-amyloidogenic activity of tannic acid and its activity to destabilize Alzheimer's beta-amyloid fibrils in vitro. Biochim Biophys Acta 1690, 193-202.) was used as a control of an inhibitor.
The sample used for the ThT assay was prepared to have a final concentration of 50 μM before being used for the experiment. An extracted sample from the BY-2 cells having an empty vector introduced therein (VC) and water (PC) in place of a sample were used as controls. In addition, betanin and curcumin were used as positive controls. Curcumin is a plant-derived substance reported to have amyloid-β polymerization inhibitory activity (Yang F, Lim GP, Begum AN, et al. Curcumin inhibits formation of amyloid betaoligomers and fibrils, binds plaques, and reduces amyloid in vivo. J BiolChem. 2005; 280(7): 5892-5901. doi:10.1074/jbc.M404751200).

[2] = target: T2, human amyloid-β 1-40, Aβ40 (Homo sapiens, UniProt P05067); assay: Observation of amyloid peptide aggregation using transmission electron microscope; format: biochemical; conditions: 25 μM Aβ40 + 50 μM sample, 5 days; for effect on polymerization and amorphous aggregation of amyloid fibrils (conclusion from TEM): 37° C.; for aggregation of the amyloid peptide observed by TEM: PBS pH 7.4, 37° C., dark
T2 construct: A lyophilized amyloid peptide (human amyloid-β 1-40, Aβ40) was purchased from Peptide Institute, Inc; purchased Peptide Institute, Inc
T2 sequence (P05067 672-711 limits assumed): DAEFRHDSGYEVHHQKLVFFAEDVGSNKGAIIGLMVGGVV
Method: A lyophilized amyloid peptide (human amyloid-β 1-40, Aβ40) was purchased from Peptide Institute, Inc., dissolved as a stock solution at a concentration of 1 mM using dimethyl sulfoxide, and stored at-20° C. until use.
As a betaxanthin, the betaxanthin extracted from the betaxanthin-producing BY2 cells (FIG. 10) was used.
With regard to reaction conditions, Aβ40 and a sample (betanin, amaranthin, celosianin II, ferulic acid, or the betaxanthin) were prepared with PBS (pH 7.4) so as to have a final concentration of 25 μM and a final concentration of 50 μM, respectively. As a control, distilled water was used in place of the sample. The prepared sample was left to stand still in a dark place at 37° C. for 5 days.
The sample after the reaction was stained on a grid mesh for a transmission electron microscope by adding about 2 μL of a 2% uranyl acetate solution thereto. After the solution had dried, the aggregation of the amyloid peptide was observed using a transmission electron microscope (Hitachi 7650 TEM).

[3] = Stability of betalain pigment aqueous solutions at 37° C.; format: physicochemical; conditions: for red color after treatment: 4 days at 37° C.
Method: An aqueous solution of each of celosianin II, amaranthin, and betanin was evaluated for its stability at 37° C.
For each of betanin, amaranthin, and celosianin II, a 1 mM aqueous solution was prepared, and left to stand still in an incubator at 37° C. Absorbances at 536 nm on days 0, 1, 2, 3, and 4 were measured, and for the resultant values, relative amounts with respect to the absorbance on day 0 were calculated.

[4] = target: T3, recombinant HIV-1 protease (Human immunodeficiency virus type 1 group M subtype B, UniProt P04585); assay: HIV-1 protease inhibitory activity (residual substrate peptide by HPLC); format: biochemical
T3 construct: A recombinant HIV-1 protease (ab84117) from Abcam was used as an HIV-1 protease; purchased Abcam ab84117
Method: A recombinant HIV-1 protease (ab84117) from Abcam was used as an HIV-1 protease, and an HIV-1 protease substrate (Lys-Ala-Arg-Val-Nle-p-nitro-Phe-Glu-Ala-Nle amide) from Sigma-Aldrich was used as a substrate peptide for the HIV-1 protease. HIV-1 protease activity evaluation was performed with reference to a previously reported method (Boso, G., Orvell, C. and Somia, N.V. (2015) The nature of the N-terminal amino acid residue of HIV-1 RNase H is critical for the stability of reverse transcriptase in viral particles. J. Virol. 89, 1286-1297.). Amaranthin, betanin, or celosianin II was added to 16 pmol of the HIV-1 protease and 4 nmol of the HIV-1 protease substrate, a buffer (25 mM NaCl, 25 mM Na2HPO4, 1 mM dithiothreitol, pH 4.7) was added so that the amount of a reaction liquid was 30 μl, and a reaction was performed at 25° C. for 2 hours. With regard to the addition amount of amaranthin, betanin, or celosianin II, amaranthin, betanin, and celosianin II were each added at the ratio of a 100-fold amount with respect to the amount of the HIV-1 protease. For celosianin II, the ratios of 25-and 50-fold amounts were further evaluated. An HIV-1 inhibitor saquinavir was used as a positive control.
After the reaction, the reaction liquid was measured for the amount of the residual substrate peptide through use of HPLC, and a residual ratio with respect to the substrate before the reaction was calculated. For the HPLC, LC-20AD from Shimadzu was utilized, and a Shim-pack GWS C18 column (5 μm; 200 mm×4.6 mm i.d.; Shimadzu GLC) was used as an analytical column. For an analytical solvent system, 0.05% TFA in water was used as solvent A and 0.05% TFA in acetonitrile was used as solvent B. An HPLC program was set to a linear gradient from 0% of solvent B at 0 minutes to 50% of solvent B at 50 minutes, and the HPLC was performed at a flow rate of 0.5 mL/min and 25° C. Analysis was performed with an analytical wavelength being set to 260 nm allowing the HIV-1 protease substrate peptide to be detected.

[5] = test system: Transgenic nematodes (CL2006) expressing human amyloid-β 1-42, Aβ42; assay: Paralysis test using transgenic nematodes expressing amyloid peptide; format: in vivo, Caenorhabditis elegans; conditions: fed with 50 μM betanin, compared to group fed with dextrin (control)
Method: In a transgenic nematode expressing an amyloid peptide, aggregates of the amyloid peptide are formed in the body along with its growth period, and the nematode is paralyzed. In view of this, whether feeding with betanin changed a paralysis ratio was evaluated.
Nematodes were grown using NGM plates (nematode growth medium), and grown using Escherichia coli (OP50 strain) as food under the condition of 15° C. unless otherwise indicated.
Transgenic nematodes (CL2006) expressing an amyloid peptide (human amyloid-β 1-42, Aβ42) were obtained from the Caenorhabditis Genetics Center (CGC), USA. The CL2006 expresses Aβ42 in the cells of the body wall muscle of the nematode, and then aggregation of the amyloid peptide occurs in the muscle. […]
The individuals grown to adults through the synchronized growth were transferred to NGM plates containing various concentrations (2 μM, 10 μM, and 50 μM) of food having mixed therein dextrin or betanin, and were grown. After the nematodes had been transferred, the nematodes were each evaluated for paralysis at constant intervals. […]
Paralysis was evaluated on the basis of the behavior of the nematode after the nose of the nematode had been lightly tapped with a platinum wire.

T1 sequence (P05067 672-711 limits assumed): as above

SMILES: COc1cc(/C=C/C(=O)O)ccc1O [ferulic acid]
- amyloid-β polymerization inhibitory activity [1]: weaker than those of celosianin II, the betanin pigment, and amaranthin
- effect on polymerization and amorphous aggregation of amyloid fibrils (conclusion from TEM) [2]: inhibiting both of the polymerization and amorphous aggregation of amyloid fibrils
- aggregation of the amyloid peptide observed by TEM [2]: only short amyloid fibrils were observed

SMILES: COc1cc(/C=C/C(=O)O[C@H]2[C@H](O[C@H]3[C@H](Oc4cc5c(cc4O)[N+](=C/C=C4/C=C(C(=O)O)N[C@H](C(=O)O)C4)[C@H](C(=O)[O-])C5)O[C@H](CO)[C@@H](O)[C@@H]3O)O[C@H](C(=O)O)[C@@H](O)[C@@H]2O)ccc1O [celosianin II]
- residual amounts of the betalain pigments (absorbance at 536 nm relative to day 0) ([3]; 1 mM aqueous solution, 37° C., days 0 to 4): more abundant than amaranthin and betanin
- red color after treatment ([3]; 1 mM aqueous solution): still exhibited a red color
- stability of aqueous solution ([3]; 37° C., compared to amaranthin and betanin): stable
- dependence of HIV-1 protease inhibitory activity on amount ([4]; 25-, 50- and 100-fold amounts with respect to HIV-1 protease): amount-dependent
- HIV-1 protease activity inhibitory effect relative to amaranthin ([4]; 25-fold celosianin II vs 100-fold amaranthin): 4 times
- HIV-1 protease inhibitory activity ([4]; celosianin II added in 25-fold amount with respect to HIV-1 protease, 25° C., 2 hours, pH 4.7): comparable to that in the case where a 100-fold amount of amaranthin was added
- amyloid-β polymerization inhibitory activity [1]: comparable to or higher than that of the existing inhibitor (tannic acid)
- effect on polymerization and amorphous aggregation of amyloid fibrils (conclusion from TEM) [2]: inhibiting both of the polymerization and amorphous aggregation of amyloid fibrils
- aggregation of the amyloid peptide observed by TEM [2]: only short amyloid fibrils were observed

SMILES: O=C(O)C1=C/C(=C/C=[N+]2/c3cc(O)c(OC4OC(CO)[C@@H](O)C(O)C4O)cc3CC2C(=O)[O-])CC(C(=O)O)N1 (stereo in doubt) [betanin]
- red color after treatment ([3]; 1 mM aqueous solution): disappeared
- amyloid-β polymerization inhibitory activity [1]: comparable to or higher than that of the existing inhibitor (tannic acid)
- effect on polymerization and amorphous aggregation of amyloid fibrils (conclusion from TEM) [2]: inhibiting both of the polymerization and amorphous aggregation of amyloid fibrils
- aggregation of the amyloid peptide observed by TEM [2]: only short amyloid fibrils were observed
- paralysis ratio [5]: significant amelioration (reduction) in paralysis ratio

SMILES: O=C(O)C1=C/C(=C/C=[N+]2c3cc(O)c(O[C@@H]4O[C@H](CO)[C@@H](O)[C@H](O)[C@H]4O[C@@H]4O[C@H](C(=O)O)[C@@H](O)[C@H](O)[C@H]4O)cc3C[C@H]2C(=O)[O-])C[C@@H](C(=O)O)N1 [amaranthin]
- red color after treatment ([3]; 1 mM aqueous solution): disappeared
- amyloid-β polymerization inhibitory activity [1]: possessed inhibitory activity, though its effect was low as compared to celosianin II and betanin
- effect on polymerization and amorphous aggregation of amyloid fibrils (conclusion from TEM) [2]: inhibiting both of the polymerization and amorphous aggregation of amyloid fibrils
- aggregation of the amyloid peptide observed by TEM [2]: only short amyloid fibrils were observed
